pIC50: −log10 of the molar value.
Legend:
[1] = molecular target: Ba/F3 ERBB2 YVMA (Homo sapiens, UniProt P04626, DUP772-775, cells depend on it); assay: Cell viability assay (CellTiter Glo) in Ba/F3 cells engineered to express ERBB2 YVMA; type: cell-based, mouse; details: Ba/F3 cells expressing human ERBB2 YVMA mutant, 72 hours, % viability, read-out: Ba/F3 ERBB2 YVMA IC50
In short: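 IL-3-independent mouse Ba/F3 line stably transduced with human ERBB2 YVMA, seeded at 3000 cells/well, exposed to serially diluted compound (≤0.1% DMSO) for 72 h at 37° C. ATP read by CellTiter Glo luminescence, normalised to DMSO and media-only controls; sigmoidal nonlinear regression fit.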

[2] = molecular target: T1, phosphorylated ERBB2 (pERBB2) (Homo sapiens, UniProt P04626); assay: Detection of phosphorylated ERBB2 (pERBB2) by ELISA in BT-474 cells; type: cell-based; details: four hour incubation with compound
T1 construct: endogenous in cells; host or cells: BT-474
In short: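 BT-474 cells treated 4 h at 37 °C, 5% CO2 with four-fold dilutions (10 μM to 0.01 nM final). Lysates analysed by ELISA for pERBB2, TMB read at OD 450 nm. % relative activity normalised to no-cell (low) and 0.1% DMSO-treated (high) controls.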

[3] = molecular target: T2, phosphorylated EGFR (pEGFR) (Homo sapiens, UniProt P00533); assay: Detection of phosphorylated EGFR (pEGFR) in EGF-stimulated A431 cells (AlphaLISA); type: cell-based; details: A431 cells (10% FBS), 4 hours incubation, EGF 30 ng/mL for 10 minutes
T2 construct: performed to measure phosphorylated EGFR levels using A431 cells; endogenous in cells; host or cells: A431
In short: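 Cells in 10% FBS treated with compound 4 h at 37° C., then stimulated 10 min with 30 ng/mL EGF, lysed, and pEGFR measured by AlphaLISA. Inhibition normalized to DMSO and staurosporine controls; IC50 from four-parameter logistic fit.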

T1 sequence (P04626 23-1255): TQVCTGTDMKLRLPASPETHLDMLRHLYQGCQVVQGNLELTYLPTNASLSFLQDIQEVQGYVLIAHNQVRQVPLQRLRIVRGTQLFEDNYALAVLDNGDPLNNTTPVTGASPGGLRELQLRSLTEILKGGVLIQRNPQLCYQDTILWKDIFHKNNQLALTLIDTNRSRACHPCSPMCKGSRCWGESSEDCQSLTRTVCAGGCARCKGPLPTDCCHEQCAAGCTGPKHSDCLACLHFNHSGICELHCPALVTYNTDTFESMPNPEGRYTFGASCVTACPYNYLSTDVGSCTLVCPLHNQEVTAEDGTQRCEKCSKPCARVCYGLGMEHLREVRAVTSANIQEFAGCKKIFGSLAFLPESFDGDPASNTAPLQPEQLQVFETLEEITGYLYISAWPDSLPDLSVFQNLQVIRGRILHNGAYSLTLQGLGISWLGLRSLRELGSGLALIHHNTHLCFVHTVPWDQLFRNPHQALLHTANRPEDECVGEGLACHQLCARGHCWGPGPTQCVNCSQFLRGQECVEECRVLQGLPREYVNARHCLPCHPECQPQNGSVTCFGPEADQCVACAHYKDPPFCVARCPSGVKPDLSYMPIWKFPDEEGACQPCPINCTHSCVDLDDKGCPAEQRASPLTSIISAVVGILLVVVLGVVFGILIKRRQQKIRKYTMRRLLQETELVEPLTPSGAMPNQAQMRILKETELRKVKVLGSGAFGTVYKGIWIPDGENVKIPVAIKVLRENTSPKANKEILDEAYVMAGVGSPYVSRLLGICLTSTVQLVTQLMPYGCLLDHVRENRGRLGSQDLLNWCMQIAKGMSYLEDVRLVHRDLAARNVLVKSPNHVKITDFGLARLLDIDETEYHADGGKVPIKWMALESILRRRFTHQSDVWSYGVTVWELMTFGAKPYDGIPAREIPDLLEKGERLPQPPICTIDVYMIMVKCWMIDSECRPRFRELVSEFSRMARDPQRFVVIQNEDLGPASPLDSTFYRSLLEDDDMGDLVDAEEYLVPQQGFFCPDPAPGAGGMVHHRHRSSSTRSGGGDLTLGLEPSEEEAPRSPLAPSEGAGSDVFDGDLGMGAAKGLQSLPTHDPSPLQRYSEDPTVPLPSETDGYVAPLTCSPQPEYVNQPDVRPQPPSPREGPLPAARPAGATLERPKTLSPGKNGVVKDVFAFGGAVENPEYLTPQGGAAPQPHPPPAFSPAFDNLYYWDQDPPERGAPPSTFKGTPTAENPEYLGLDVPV
T2 sequence (P00533 25-1210): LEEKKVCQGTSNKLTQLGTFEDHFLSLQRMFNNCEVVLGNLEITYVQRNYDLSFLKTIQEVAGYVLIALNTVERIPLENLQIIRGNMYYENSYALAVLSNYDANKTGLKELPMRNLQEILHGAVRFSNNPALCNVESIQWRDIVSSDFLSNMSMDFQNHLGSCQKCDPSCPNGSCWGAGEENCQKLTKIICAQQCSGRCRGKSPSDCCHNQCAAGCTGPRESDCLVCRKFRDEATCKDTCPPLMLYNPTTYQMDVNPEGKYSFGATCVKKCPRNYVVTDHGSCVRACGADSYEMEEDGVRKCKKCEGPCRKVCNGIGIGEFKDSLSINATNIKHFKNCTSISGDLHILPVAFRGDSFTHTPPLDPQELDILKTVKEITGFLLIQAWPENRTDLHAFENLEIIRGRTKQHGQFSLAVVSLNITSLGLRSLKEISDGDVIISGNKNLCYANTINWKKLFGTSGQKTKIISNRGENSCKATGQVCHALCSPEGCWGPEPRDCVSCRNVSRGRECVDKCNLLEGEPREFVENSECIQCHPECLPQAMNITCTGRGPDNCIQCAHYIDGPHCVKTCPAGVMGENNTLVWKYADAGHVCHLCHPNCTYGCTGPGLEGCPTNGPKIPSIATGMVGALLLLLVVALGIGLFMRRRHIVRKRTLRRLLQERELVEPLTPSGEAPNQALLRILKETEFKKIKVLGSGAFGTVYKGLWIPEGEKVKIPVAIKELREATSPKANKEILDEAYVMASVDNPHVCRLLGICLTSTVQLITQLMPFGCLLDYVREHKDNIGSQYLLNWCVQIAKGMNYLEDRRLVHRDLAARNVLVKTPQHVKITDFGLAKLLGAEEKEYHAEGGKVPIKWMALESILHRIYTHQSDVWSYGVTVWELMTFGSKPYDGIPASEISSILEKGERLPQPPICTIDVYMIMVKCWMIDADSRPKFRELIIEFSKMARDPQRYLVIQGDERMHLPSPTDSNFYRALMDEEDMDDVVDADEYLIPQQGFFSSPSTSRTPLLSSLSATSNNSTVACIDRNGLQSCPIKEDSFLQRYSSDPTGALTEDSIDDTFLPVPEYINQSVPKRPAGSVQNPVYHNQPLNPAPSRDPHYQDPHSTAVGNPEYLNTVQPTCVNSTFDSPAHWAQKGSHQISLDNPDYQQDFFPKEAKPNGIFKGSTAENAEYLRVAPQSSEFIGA
Chain of Ba/F3 ERBB2 YVMA (P04626 with tags, fused parts or gaps DUP772-775): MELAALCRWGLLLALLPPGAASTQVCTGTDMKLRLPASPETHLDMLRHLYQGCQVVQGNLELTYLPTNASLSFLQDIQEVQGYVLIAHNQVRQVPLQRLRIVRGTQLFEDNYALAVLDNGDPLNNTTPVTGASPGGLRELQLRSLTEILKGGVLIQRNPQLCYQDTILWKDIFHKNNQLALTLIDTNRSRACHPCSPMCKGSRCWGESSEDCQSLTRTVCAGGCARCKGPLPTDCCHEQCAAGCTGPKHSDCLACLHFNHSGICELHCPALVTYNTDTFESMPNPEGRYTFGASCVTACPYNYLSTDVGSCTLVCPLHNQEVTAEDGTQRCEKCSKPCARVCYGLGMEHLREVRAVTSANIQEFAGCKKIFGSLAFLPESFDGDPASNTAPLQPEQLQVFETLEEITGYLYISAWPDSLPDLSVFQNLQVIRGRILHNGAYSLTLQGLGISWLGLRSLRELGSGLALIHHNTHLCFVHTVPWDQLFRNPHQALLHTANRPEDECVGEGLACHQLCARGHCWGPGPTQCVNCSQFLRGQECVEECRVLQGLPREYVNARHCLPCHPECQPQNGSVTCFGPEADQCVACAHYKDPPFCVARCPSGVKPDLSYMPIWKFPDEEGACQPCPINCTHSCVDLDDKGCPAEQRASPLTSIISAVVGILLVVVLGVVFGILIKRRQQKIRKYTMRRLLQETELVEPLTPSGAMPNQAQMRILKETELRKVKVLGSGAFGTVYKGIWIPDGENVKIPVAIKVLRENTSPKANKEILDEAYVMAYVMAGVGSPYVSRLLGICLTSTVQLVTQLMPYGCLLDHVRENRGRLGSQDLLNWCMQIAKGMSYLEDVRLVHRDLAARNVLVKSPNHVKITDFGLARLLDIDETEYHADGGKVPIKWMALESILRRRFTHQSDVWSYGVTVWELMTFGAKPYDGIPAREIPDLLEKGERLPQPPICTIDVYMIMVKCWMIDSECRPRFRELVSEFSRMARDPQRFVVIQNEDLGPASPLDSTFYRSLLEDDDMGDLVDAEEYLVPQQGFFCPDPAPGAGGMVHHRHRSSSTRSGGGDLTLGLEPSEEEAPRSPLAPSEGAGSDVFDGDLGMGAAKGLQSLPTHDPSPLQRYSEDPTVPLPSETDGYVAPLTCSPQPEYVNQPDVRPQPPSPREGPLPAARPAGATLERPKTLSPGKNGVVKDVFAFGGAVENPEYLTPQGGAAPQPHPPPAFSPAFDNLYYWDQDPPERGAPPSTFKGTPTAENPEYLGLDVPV

pIC50 [2] | pIC50 [3] | Structure (SMILES) | GI50 [1] [µM]
7.78 | 6.14 | C=CC(=O)N1CCN(c2ccc3ncnc(Nc4ccc(Oc5ccc6c(c5)ncn6C)c(C)c4)c3c2)CC1 [Compound 88, 1-{4-[4-({3-methyl-4-[(1-methyl-1,3-benzodiazol-5-yl)oxy]phenyl}amino)quinazolin-6-yl]piperazin-1-yl}prop-2-en-1-one] | 0.022
7.45 | 5.84 | C=CC(=O)N1CCN(c2ccc3ncnc(Nc4ccc(Cc5ccc6c(c5)ncn6C)c(C)c4)c3n2)C[C@H]1C [Compound 53, 1-[(2R)-2-methyl-4-[4-({3-methyl-4-[(1-methyl-1,3-benzodiazol-5-yl)methyl]phenyl}amino)pyrido[3,2-d]pyrimidin-6-yl]piperazin-1-yl]prop-2-en-1-one] | 0.014
7.43 | 5.99 | C=CC(=O)N1C2CCC1CN(c1ccc3ncnc(Nc4ccc(Oc5ccc6c(c5)ncn6C)c(C)c4)c3n1)C2 [Compound 74, 1-(3-(4-((3-methyl-4-((1-methyl-1H-benzo[d]imidazol-5-yl)oxy)phenyl)amino)pyrido[3,2-d]pyrimidin-6-yl)-3,8-diazabicyclo[3.2.1]octan-8-yl)prop-2-en-1-one] | 0.0279
7.22 | 5.55 | CC#CC(=O)N1C2CCC1CN(c1ccc3ncnc(Nc4ccc(Oc5ccn6ncnc6c5)c(C)c4)c3n1)C2 [Compound 27, 1-(3-{4-[(3-methyl-4-{[1,2,4]triazolo[1,5-a]pyridin-7-yloxy}phenyl)amino]pyrido[3,2-d]pyrimidin-6-yl}-3,8-diazabicyclo[3.2.1]octan-8-yl)but-2-yn-1-one] | 0.0274
8.12 | 6.34 | C=CC(=O)N1CC[C@H](Oc2ccc3ncnc(Nc4ccc(Oc5ccc6c(c5)ncn6C)c(C)c4)c3c2)C1 [Compound 38, 1-[(3S)-3-{[4-({3-methyl-4-[(1-methyl-1,3-benzodiazol-5-yl)oxy]phenyl}amino)quinazolin-6-yl]oxy}pyrrolidin-1-yl]prop-2-en-1-one] | 0.00722
7.48 | 5.92 | C=CC(=O)N1CCN(c2ccc3ncnc(Nc4ccc(Oc5ccc6c(c5)ncn6C)c(C)c4)c3n2)C[C@H]1C [Compound 48, 1-[(2R)-2-methyl-4-[4-({3-methyl-4-[(1-methyl-1,3-benzodiazol-5-yl)oxy]phenyl}amino)pyrido[3,2-d]pyrimidin-6-yl]piperazin-1-yl]prop-2-en-1-one] | 0.0183
7.28 | 5.90 | C=CC(=O)N1C2CCC1CN(c1ccc3ncnc(Nc4ccc(Cc5ccc6c(c5)ncn6C)c(C)c4)c3n1)C2 [Compound 123, 1-(3-(4-((3-methyl-4-((1-methyl-1H-benzo[d]imidazol-5-yl)methyl)phenyl)amino)pyrido[3,2-d]pyrimidin-6-yl)-3,8-diazabicyclo[3.2.1]octan-8-yl)prop-2-en-1-one] | 0.00961
7.66 | 5.54 | C=CC(=O)N1CCN(c2cc3c(Nc4ccc(Oc5ccc6c(c5)ncn6C)c(C)c4)ncnc3cn2)[C@@H](C)C1 [Compound 107, 1-[(3S)-3-methyl-4-[4-({3-methyl-4-[(1-methyl-1,3-benzodiazol-5-yl)oxy]phenyl}amino)pyrido[3,4-d]pyrimidin-6-yl]piperazin-1-yl]prop-2-en-1-one] | 0.0734
7.66 | 5.62 | C=CC(=O)N1CCN(c2ccc3ncnc(Nc4ccc(Cc5ccc6c(c5)ncn6C)c(C)c4)c3c2)C[C@H]1C [Compound 54, 1-[(2R)-2-methyl-4-[4-({3-methyl-4-[(1-methyl-1,3-benzodiazol-5-yl)methyl]phenyl}amino)quinazolin-6-yl]piperazin-1-yl]prop-2-en-1-one] | 0.0482

Further lines, the compound ahead of its results:

Structure (SMILES) | pIC50 [2] | pIC50 [3] | GI50 [1] [µM]
C=CC(=O)N1CCN(c2cc3c(Nc4ccc(Cc5ccc6c(c5)ncn6C)c(C)c4)ncnc3cn2)CC1 [Compound 83, 1-{4-[4-({3-methyl-4-[(1-methyl-1,3-benzodiazol-5-yl)methyl]phenyl}amino)pyrido[3,4-d]pyrimidin-6-yl]piperazin-1-yl}prop-2-en-1-one; formic acid] | 7.59 | 5.86 | 0.0125
C=CC(=O)N1CCN(c2ccc3ncnc(Nc4ccc(Oc5ccn6ncnc6c5)c(C)c4)c3c2F)C(C)C1 (stereo not drawn) [Compound 114, 1-(4-{5-fluoro-4-[(3-methyl-4-{[1,2,4]triazolo[1,5-a]pyridin-7-yloxy}phenyl)amino]quinazolin-6-yl}-3-methylpiperazin-1-yl)prop-2-en-1-one] | 7.34 | < 5.00 | 0.0539
Cc1cc(Nc2ncnc3cnc(N4CCN(C(=O)/C=C/CN(C)C)[C@H](C)C4)nc23)ccc1Cc1ccn2ncnc2c1 [Compound 122, (R,E)-1-(4-(8-((4-([1,2,4]triazolo[1,5-a]pyridin-7-ylmethyl)-3-methylphenyl)amino)pyrimido[5,4-d]pyrimidin-2-yl)-2-methylpiperazin-1-yl)-4-(dimethylamino)but-2-en-1-one] | 7.27 | < 5.00 | 0.0324
C=CC(=O)N1CCN(c2cc3c(Nc4ccc(OC5CCN(C(=O)CC(C)(C)C)CC5)c(C)c4)ncnc3cn2)CC1 [Compound 3, 3,3-dimethyl-1-{4-[2-methyl-4-({6-[4-(prop-2-enoyl)piperazin-1-yl]pyrido[3,4-d]pyrimidin-4-yl}amino)phenoxy]piperidin-1-yl}butan-1-one] | 7.37 | 5.77 | 0.0402
C=CC(=O)N1CCN(c2cc3c(Nc4ccc(OC5CCN(C(=O)C6CCCC6)CC5)c(C)c4)ncnc3cn2)CC1 [Compound 2, 1-(4-(4-((4-((1-(cyclopentanecarbonyl)piperidin-4-yl)oxy)-3-methylphenyl)amino)pyrido[3,4-d]pyrimidin-6-yl)piperazin-1-yl)prop-2-en-1-one] | 7.32 | 5.57 | 0.0203
C=CC(=O)N1CCN(c2cc3c(Nc4ccc(Oc5ccn6ncnc6c5)c(C)c4)ncnc3cn2)CC1 [Compound 109, 1-(4-(4-((4-([1,2,4]triazolo[1,5-a]pyridin-7-yloxy)-3-methylphenyl)amino)pyrido[3,4-d]pyrimidin-6-yl)piperazin-1-yl)prop-2-en-1-one] | 7.99 | 6.08 | 0.0134
C=CC(=O)N1CCN(c2ncc3ncnc(Nc4ccc(Cc5ccn6ncnc6c5)c(C)c4)c3n2)CC1 [Compound 115, 1-(4-(8-((4-([1,2,4]triazolo[1,5-a]pyridin-7-ylmethyl)-3-methylphenyl)amino)pyrimido[5,4-d]pyrimidin-2-yl)piperazin-1-yl)prop-2-en-1-one] | 7.77 | 5.37 | 0.00929
C=CC(=O)N1CCN(c2cc3c(Nc4ccc(Cc5ccn6ncnc6c5)c(C)c4)ncnc3cn2)[C@@H](C)C1 [Compound 85, (S)-1-(4-(4-((4-([1,2,4]triazolo[1,5-a]pyridin-7-ylmethyl)-3-methylphenyl)amino)pyrido[3,4-d]pyrimidin-6-yl)-3-methylpiperazin-1-yl)prop-2-en-1-one] | 7.32 | < 5.00 | 0.0697

— US20250136595A1, “ACYLATED HETEROCYCLIC QUINAZOLINE DERIVATIVES AS INHIBITORS OF ERBB2” (Enliven Inc., priority 2022, published 2025)
